Data on 1 molecule can be found in US20120121708A1 (National Taiwan University, priority 2010, published 2012).

Series [1] in a line: dissolution rate analysis by dissolution tester (Weibull model). The format is physicochemical. The procedure: The microparticle morphology and size are detected by the scanning electron microscopy (SEM). The particle size distribution (PSD) is analyzed by the image analysis software “Image J”. The crystal properties are analyzed by the X-Ray diffractometer. The changes in the crystal form are detected by the differential scanning calorimetry (DSC). […] The analyses of the dissolution rate are performed by the dissolution tester.

The conditions of series [2]: background statement; cited from earlier work.

The structures appear in SMILES notation.

In turn, `CC(=O)Nc1nnc(S(N)(=O)=O)s1` [acetazolamide bulk drug, acetazolamide] returned a dissolution rate coefficient in series [1] of 0.0626 min⁻¹. In addition, the “particle size of commercial acetazolamide drug” value in series [2] is “about 20 μm”.
